Experimental data from PubChem BioAssay (NCI).
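Grown in 96-well plates, cells were treated for 48 hours with each compound at five concentrations. Insufficient inhibition: endpoint recorded as highest concentration tested. The concentration for 50% growth inhibition is given as GI50. TGI is the concentration that stops growth completely.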

Columns and labels:
Test in all cases: NCI-60 cell line screen, 48 h
786-0 renal = tested on: 786-0 renal
A498 renal = tested on: A498 renal
A549 NSCLC = tested on: A549 NSCLC
ACHN renal = tested on: ACHN renal
BT-549 breast = tested on: BT-549 breast
CAKI-1 renal = tested on: CAKI-1 renal
CCRF-CEM leukemia = tested on: CCRF-CEM leukemia
COLO 205 colon = tested on: COLO 205 colon
DU-145 prostate = tested on: DU-145 prostate
EKVX NSCLC = tested on: EKVX NSCLC
HCC-2998 colon = tested on: HCC-2998 colon
HCT-116 colon = tested on: HCT-116 colon
HCT-15 colon = tested on: HCT-15 colon
HL-60(TB) leukemia = tested on: HL-60(TB) leukemia
HOP-62 NSCLC = tested on: HOP-62 NSCLC
HOP-92 NSCLC = tested on: HOP-92 NSCLC
HS 578T breast = tested on: HS 578T breast
HT29 colon = tested on: HT29 colon
IGROV1 ovarian = tested on: IGROV1 ovarian
K-562 leukemia = tested on: K-562 leukemia
KM12 colon = tested on: KM12 colon
LOX IMVI melanoma = tested on: LOX IMVI melanoma
M14 melanoma = tested on: M14 melanoma
MALME-3M melanoma = tested on: MALME-3M melanoma
MCF7 breast = tested on: MCF7 breast
MDA-MB-231 breast = tested on: MDA-MB-231 breast
MDA-MB-435 = tested on: MDA-MB-435
MOLT-4 leukemia = tested on: MOLT-4 leukemia
NCI-H226 lung = tested on: NCI-H226 lung
NCI-H23 lung = tested on: NCI-H23 lung
NCI-H460 lung = tested on: NCI-H460 lung
NCI-H522 lung = tested on: NCI-H522 lung
NCI/ADR-RES ovarian = tested on: NCI/ADR-RES ovarian
OVCAR-3 ovarian = tested on: OVCAR-3 ovarian
OVCAR-4 ovarian = tested on: OVCAR-4 ovarian
OVCAR-5 ovarian = tested on: OVCAR-5 ovarian
OVCAR-8 ovarian = tested on: OVCAR-8 ovarian
PC-3 prostate = tested on: PC-3 prostate
RPMI-8226 leukemia = tested on: RPMI-8226 leukemia
RXF 393 renal = tested on: RXF 393 renal
SF-268 CNS = tested on: SF-268 CNS
SF-295 CNS = tested on: SF-295 CNS
SF-539 CNS = tested on: SF-539 CNS
SK-MEL-2 melanoma = tested on: SK-MEL-2 melanoma
SK-MEL-28 melanoma = tested on: SK-MEL-28 melanoma
SK-MEL-5 melanoma = tested on: SK-MEL-5 melanoma
SK-OV-3 ovarian = tested on: SK-OV-3 ovarian
SN12C renal = tested on: SN12C renal
SNB-19 CNS = tested on: SNB-19 CNS
SNB-75 CNS = tested on: SNB-75 CNS
SR leukemia = tested on: SR leukemia
SW-620 colon = tested on: SW-620 colon
T-47D breast = tested on: T-47D breast
TK-10 renal = tested on: TK-10 renal
U251 CNS = tested on: U251 CNS
UACC-257 melanoma = tested on: UACC-257 melanoma
UACC-62 melanoma = tested on: UACC-62 melanoma
UO-31 renal = tested on: UO-31 renal

How did the GI50 (786-0 renal) turn out when `CCCS(=O)(=O)Nc1ccc(F)c(C(=O)c2c[nH]c3ncc(Cl)cc23)c1F` was run?
The GI50 was 10.7 µM.

What about the TGI (786-0 renal) of the same compound?
The TGI was 74.9 µM.

What about the GI50 (A498 renal) of the same compound?
The GI50 was 5.14 µM.

What about the TGI (A498 renal) of the same compound?
The TGI was 24 µM.

And the GI50 (A549 NSCLC)?
The GI50 was 9.87 µM.

And the TGI (A549 NSCLC)?
Its TGI is 56.5 µM.

And the GI50 (ACHN renal)?
The GI50 was 3.78 µM.

And the TGI (ACHN renal)?
The TGI was 66.4 µM.

What about the GI50 (BT-549 breast) of the same compound?
The GI50 was 13.3 µM.

And the TGI (BT-549 breast)?
Its TGI is 57.9 µM.

And the GI50 (CAKI-1 renal)?
Its GI50 is 3.65 µM.

What about the TGI (CAKI-1 renal) of the same compound?
Its TGI is 56.9 µM.

And the GI50 (CCRF-CEM leukemia)?
Its GI50 is 16.6 µM.

And the TGI (CCRF-CEM leukemia)?
The TGI was 99.1 µM.

What about the GI50 (COLO 205 colon) of the same compound?
The GI50 was 0.116 µM.

What about the TGI (COLO 205 colon) of the same compound?
The TGI was 17.3 µM.

What about the GI50 (DU-145 prostate) of the same compound?
Its GI50 is 7.55 µM.

What about the TGI (DU-145 prostate) of the same compound?
Its TGI is 80.6 µM.

What about the GI50 (EKVX NSCLC) of the same compound?
The GI50 was 18.3 µM.

And the TGI (EKVX NSCLC)?
The TGI was 80.9 µM.

And the GI50 (HCC-2998 colon)?
The GI50 was 17.7 µM.

And the TGI (HCC-2998 colon)?
The TGI was 72.4 µM.

And the GI50 (HCT-116 colon)?
The GI50 was 6.21 µM.

What about the TGI (HCT-116 colon) of the same compound?
Its TGI is 62.7 µM.

What about the GI50 (HCT-15 colon) of the same compound?
Its GI50 is 6.62 µM.

What about the TGI (HCT-15 colon) of the same compound?
Its TGI is > 97.3 µM.

And the GI50 (HL-60(TB) leukemia)?
The GI50 was 20 µM.

And the TGI (HL-60(TB) leukemia)?
The TGI was 57.4 µM.

What about the GI50 (HOP-62 NSCLC) of the same compound?
The GI50 was 10.2 µM.

What about the TGI (HOP-62 NSCLC) of the same compound?
The TGI was 65.8 µM.

And the GI50 (HOP-92 NSCLC)?
The GI50 was 3.2 µM.

And the TGI (HOP-92 NSCLC)?
Its TGI is 15.4 µM.

What about the GI50 (HS 578T breast) of the same compound?
The GI50 was 3.9 µM.

What about the TGI (HS 578T breast) of the same compound?
The TGI was 26.7 µM.

And the GI50 (HT29 colon)?
Its GI50 is 0.2 µM.

What about the TGI (HT29 colon) of the same compound?
Its TGI is 21.8 µM.

And the GI50 (IGROV1 ovarian)?
The GI50 was 5 µM.

And the TGI (IGROV1 ovarian)?
Its TGI is 75.4 µM.

What about the GI50 (K-562 leukemia) of the same compound?
Its GI50 is 9.87 µM.

What about the TGI (K-562 leukemia) of the same compound?
The TGI was > 81.5 µM.

And the GI50 (KM12 colon)?
The GI50 was 11.4 µM.

What about the TGI (KM12 colon) of the same compound?
The TGI was > 79.8 µM.

What about the GI50 (LOX IMVI melanoma) of the same compound?
Its GI50 is 2.05 µM.

And the TGI (LOX IMVI melanoma)?
Its TGI is 31.1 µM.

And the GI50 (M14 melanoma)?
The GI50 was 0.109 µM.

What about the TGI (M14 melanoma) of the same compound?
Its TGI is 5.18 µM.

And the GI50 (MALME-3M melanoma)?
Its GI50 is 0.0281 µM.

And the TGI (MALME-3M melanoma)?
Its TGI is 0.174 µM.

And the GI50 (MCF7 breast)?
The GI50 was 20.2 µM.

What about the TGI (MCF7 breast) of the same compound?
The TGI was 69.9 µM.

And the GI50 (MDA-MB-231 breast)?
The GI50 was 9.09 µM.

What about the TGI (MDA-MB-231 breast) of the same compound?
Its TGI is 33.7 µM.

And the GI50 (MDA-MB-435)?
The GI50 was 0.337 µM.

And the TGI (MDA-MB-435)?
The TGI was 29.6 µM.

What about the GI50 (MOLT-4 leukemia) of the same compound?
The GI50 was 14.7 µM.

And the TGI (MOLT-4 leukemia)?
Its TGI is > 83 µM.

And the GI50 (NCI-H226 lung)?
Its GI50 is 16.2 µM.

What about the TGI (NCI-H226 lung) of the same compound?
The TGI was 78.1 µM.

What about the GI50 (NCI-H23 lung) of the same compound?
The GI50 was 20.7 µM.

And the TGI (NCI-H23 lung)?
Its TGI is > 91.6 µM.

And the GI50 (NCI-H460 lung)?
Its GI50 is 5.92 µM.

And the TGI (NCI-H460 lung)?
Its TGI is 50.3 µM.

And the GI50 (NCI-H522 lung)?
Its GI50 is 8.34 µM.

And the TGI (NCI-H522 lung)?
The TGI was 31.5 µM.

What about the GI50 (NCI/ADR-RES ovarian) of the same compound?
The GI50 was 14.8 µM.

What about the TGI (NCI/ADR-RES ovarian) of the same compound?
Its TGI is > 90.3 µM.

What about the GI50 (OVCAR-3 ovarian) of the same compound?
Its GI50 is 15.4 µM.

And the TGI (OVCAR-3 ovarian)?
The TGI was 58.7 µM.

What about the GI50 (OVCAR-4 ovarian) of the same compound?
The GI50 was 9.74 µM.

And the TGI (OVCAR-4 ovarian)?
The TGI was 75.7 µM.

What about the GI50 (OVCAR-5 ovarian) of the same compound?
Its GI50 is 23.3 µM.

What about the TGI (OVCAR-5 ovarian) of the same compound?
The TGI was > 92.8 µM.

What about the GI50 (OVCAR-8 ovarian) of the same compound?
The GI50 was 8.81 µM.

What about the TGI (OVCAR-8 ovarian) of the same compound?
Its TGI is 61.8 µM.

What about the GI50 (PC-3 prostate) of the same compound?
The GI50 was 10.6 µM.

What about the TGI (PC-3 prostate) of the same compound?
The TGI was 77.6 µM.

And the GI50 (RPMI-8226 leukemia)?
Its GI50 is 25.2 µM.

And the TGI (RPMI-8226 leukemia)?
Its TGI is > 100 µM.

What about the GI50 (RXF 393 renal) of the same compound?
Its GI50 is 5.23 µM.

And the TGI (RXF 393 renal)?
Its TGI is 22.4 µM.

And the GI50 (SF-268 CNS)?
Its GI50 is 13.5 µM.

What about the TGI (SF-268 CNS) of the same compound?
Its TGI is 73 µM.

What about the GI50 (SF-295 CNS) of the same compound?
Its GI50 is 5.35 µM.

And the TGI (SF-295 CNS)?
Its TGI is 45.6 µM.

What about the GI50 (SF-539 CNS) of the same compound?
Its GI50 is 9.1 µM.

What about the TGI (SF-539 CNS) of the same compound?
Its TGI is 57.4 µM.

And the GI50 (SK-MEL-2 melanoma)?
Its GI50 is 4.37 µM.

And the TGI (SK-MEL-2 melanoma)?
The TGI was 16.4 µM.

And the GI50 (SK-MEL-28 melanoma)?
The GI50 was 0.109 µM.

And the TGI (SK-MEL-28 melanoma)?
Its TGI is 9.62 µM.

What about the GI50 (SK-MEL-5 melanoma) of the same compound?
The GI50 was 1.24 µM.

What about the TGI (SK-MEL-5 melanoma) of the same compound?
Its TGI is 19 µM.

What about the GI50 (SK-OV-3 ovarian) of the same compound?
Its GI50 is 3.76 µM.

What about the TGI (SK-OV-3 ovarian) of the same compound?
Its TGI is 36.5 µM.

What about the GI50 (SN12C renal) of the same compound?
Its GI50 is 7.66 µM.

And the TGI (SN12C renal)?
Its TGI is 84.9 µM.

What about the GI50 (SNB-19 CNS) of the same compound?
Its GI50 is 29.7 µM.

And the TGI (SNB-19 CNS)?
Its TGI is 99.7 µM.

What about the GI50 (SNB-75 CNS) of the same compound?
Its GI50 is 4.9 µM.

What about the TGI (SNB-75 CNS) of the same compound?
The TGI was 24.8 µM.

And the GI50 (SR leukemia)?
The GI50 was 4.68 µM.

And the TGI (SR leukemia)?
The TGI was 48 µM.

What about the GI50 (SW-620 colon) of the same compound?
The GI50 was 22.6 µM.

And the TGI (SW-620 colon)?
Its TGI is 87.3 µM.

And the GI50 (T-47D breast)?
The GI50 was 8.55 µM.

What about the TGI (T-47D breast) of the same compound?
The TGI was 65 µM.

And the GI50 (TK-10 renal)?
Its GI50 is 6.3 µM.

What about the TGI (TK-10 renal) of the same compound?
The TGI was 35.9 µM.

What about the GI50 (U251 CNS) of the same compound?
Its GI50 is 9.08 µM.

And the TGI (U251 CNS)?
The TGI was 60.5 µM.

And the GI50 (UACC-257 melanoma)?
Its GI50 is 0.129 µM.

What about the TGI (UACC-257 melanoma) of the same compound?
The TGI was 1.18 µM.

And the GI50 (UACC-62 melanoma)?
The GI50 was 0.0639 µM.

What about the TGI (UACC-62 melanoma) of the same compound?
The TGI was 2.14 µM.

What about the GI50 (UO-31 renal) of the same compound?
The GI50 was 6.4 µM.

What about the TGI (UO-31 renal) of the same compound?
The TGI was 66.3 µM.
